Legend:
[1] = biological target: Hepatocyte growth factor receptor (Homo sapiens) (UniProt P08581); assay: Inhibition of human Met at 10 uM after 60 mins by TR-FRET assay; details: values are per cent of control
[2] = biological target: Ribosomal protein S6 kinase alpha-3 (Homo sapiens) (UniProt P51812); assay: Inhibition of human Rsk2 at 10 uM after 60 mins by TR-FRET assay; details: values are per cent of control
[3] = test system: Mitogen-activated protein kinase 14 (Homo sapiens), Q16539 [T106M]; assay: Inhibition of human SAPK2a T106M mutant at 10 uM after 60 mins by TR-FRET assay; details: values are per cent of control
[4] = biological target: Mitogen-activated protein kinase 11 (Homo sapiens) (UniProt Q15759); assay: Inhibition of human SAPK2b at 10 uM after 60 mins by TR-FRET assay; details: values are per cent of control
[5] = biological target: Mitogen-activated protein kinase 12 (Homo sapiens) (UniProt P53778); assay: Inhibition of human SAPK3 at 10 uM after 60 mins by TR-FRET assay; details: values are per cent of control
[6] = biological target: Serine/threonine-protein kinase PLK2 (Homo sapiens) (UniProt Q9NYY3); assay: Inhibition of human Snk at 10 uM after 60 mins by TR-FRET assay; details: values are per cent of control
[7] = biological target: Mitogen-activated protein kinase 9 (Homo sapiens, UniProt P45984); details: 10 uM
Description: Inhibition of human JNK2alpha2 at 10 uM after 60 mins by TR-FRET assay

[8] = biological target: Tyrosine-protein kinase Fes/Fps (Homo sapiens) (UniProt P07332); assay: Inhibition of human Fes at 10 uM after 60 mins by TR-FRET assay; values are per cent of control
[9] = biological target: Tyrosine-protein kinase receptor UFO (Homo sapiens) (UniProt P30530); assay: Inhibition of human Axl at 10 uM after 60 mins by TR-FRET assay; values are per cent of control
[10] = biological target: G protein-coupled receptor kinase 5 (Homo sapiens) (UniProt P34947); assay: Inhibition of human GRK5 at 10 uM after 60 mins by TR-FRET assay; values are per cent of control
[11] = biological target: Activated CDC42 kinase 1 (Homo sapiens) (UniProt Q07912); assay: Inhibition of human ACK1 at 10 uM after 60 mins by TR-FRET assay; values are per cent of control
[12] = biological target: Activin receptor type-1B (Homo sapiens) (UniProt P36896); assay: Inhibition of human ALK4 at 10 uM after 60 mins by TR-FRET assay; values are per cent of control
[13] = biological target: Dual specificity protein kinase CLK3 (Homo sapiens) (UniProt P49761); assay: Inhibition of human CLK3 at 10 uM after 60 mins by TR-FRET assay; values are per cent of control
[14] = biological target: Serine/threonine-protein kinase PLK3 (Homo sapiens) (UniProt Q9H4B4); assay: Inhibition of human Plk3 at 10 uM after 60 mins by TR-FRET assay; values are per cent of control
[15] = biological target: cAMP-dependent protein kinase catalytic subunit PRKX (Homo sapiens) (UniProt P51817); assay: Inhibition of human PrKX at 10 uM after 60 mins by TR-FRET assay; values are per cent of control
[16] = biological target: Protein-tyrosine kinase 2-beta (Homo sapiens) (UniProt Q14289); assay: Inhibition of human Pyk2 at 10 uM after 60 mins by TR-FRET assay; values are per cent of control
[17] = biological target: Ephrin type-A receptor 8 (Homo sapiens) (UniProt P29322); assay: Inhibition of human EphA8 at 10 uM after 60 mins by TR-FRET assay; values are per cent of control
[18] = biological target: Ephrin type-B receptor 3 (Homo sapiens) (UniProt P54753); assay: Inhibition of human EphB3 at 10 uM after 60 mins by TR-FRET assay; values are per cent of control
[19] = biological target: Testis-specific serine/threonine-protein kinase 2 (Homo sapiens) (UniProt Q96PF2); assay: Inhibition of human TSSK2 at 10 uM after 60 mins by TR-FRET assay; values are per cent of control
[20] = biological target: Casein kinase II subunit alpha' (Homo sapiens) (UniProt P19784); assay: Inhibition of human CK2a2 at 10 uM after 60 mins by TR-FRET assay; values are per cent of control
[21] = biological target: Serine/threonine-protein kinase pim-2 (Homo sapiens) (UniProt Q9P1W9); assay: Inhibition of human Pim-2 at 10 uM after 60 mins by TR-FRET assay; values are per cent of control
[22] = biological target: Eukaryotic elongation factor 2 kinase (Homo sapiens) (UniProt O00418); assay: Inhibition of human eEF-2K at 10 uM after 60 mins by TR-FRET assay; values are per cent of control
[23] = biological target: Insulin-like growth factor 1 receptor (Homo sapiens) (UniProt P08069); assay: Inhibition of human IGF-1R at 10 uM after 60 mins by TR-FRET assay; values are per cent of control
[24] = biological target: Protein kinase C iota type (Homo sapiens) (UniProt P41743); assay: Inhibition of human PKCiota at 10 uM after 60 mins by TR-FRET assay; values are per cent of control
[25] = biological target: Serine/threonine-protein kinase MRCK alpha (Homo sapiens) (UniProt Q5VT25); assay: Inhibition of human MRCKalpha at 10 uM after 60 mins by TR-FRET assay; values are per cent of control
[26] = biological target: Serine/threonine-protein kinase MARK2 (Homo sapiens) (UniProt Q7KZI7); assay: Inhibition of human PAR-1Balpha at 10 uM after 60 mins by TR-FRET assay; values are per cent of control
[27] = test system: Tyrosine-protein kinase ABL1 (Homo sapiens), P00519 [T315I]; assay: Inhibition of human Abl T315I mutant at 10 uM after 60 mins by TR-FRET assay; values are per cent of control
[28] = test system: Fibroblast growth factor receptor 1 (Homo sapiens), P11362 [V561M]; assay: Inhibition of human FGFR1 V561M mutant at 10 uM after 60 mins by TR-FRET assay; values are per cent of control
[29] = test system: Mast/stem cell growth factor receptor Kit (Homo sapiens), P10721 [D816H]; assay: Inhibition of human c-Kit D816H mutant at 10 uM after 60 mins by TR-FRET assay; values are per cent of control

Sequence of Serine/threonine-protein kinase PLK3 (Homo sapiens) (Q9H4B4 whole entry, looked up): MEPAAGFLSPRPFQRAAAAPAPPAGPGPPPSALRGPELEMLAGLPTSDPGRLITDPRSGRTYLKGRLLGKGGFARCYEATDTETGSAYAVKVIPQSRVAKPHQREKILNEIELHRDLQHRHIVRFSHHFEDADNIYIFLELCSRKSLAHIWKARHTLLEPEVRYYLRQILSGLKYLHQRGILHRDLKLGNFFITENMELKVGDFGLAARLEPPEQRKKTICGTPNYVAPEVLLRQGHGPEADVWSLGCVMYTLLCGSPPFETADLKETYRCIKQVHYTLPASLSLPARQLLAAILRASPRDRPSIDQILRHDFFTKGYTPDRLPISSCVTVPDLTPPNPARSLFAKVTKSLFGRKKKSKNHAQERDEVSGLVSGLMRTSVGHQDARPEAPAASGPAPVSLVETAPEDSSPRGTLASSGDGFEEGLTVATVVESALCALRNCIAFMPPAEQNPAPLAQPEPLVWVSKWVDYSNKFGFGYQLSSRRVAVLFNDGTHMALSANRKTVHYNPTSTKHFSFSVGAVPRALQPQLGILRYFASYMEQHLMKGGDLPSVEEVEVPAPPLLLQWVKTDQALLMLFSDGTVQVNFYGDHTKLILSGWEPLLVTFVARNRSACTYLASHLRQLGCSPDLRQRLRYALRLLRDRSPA
Sequence of Activin receptor type-1B (Homo sapiens) (P36896 whole entry): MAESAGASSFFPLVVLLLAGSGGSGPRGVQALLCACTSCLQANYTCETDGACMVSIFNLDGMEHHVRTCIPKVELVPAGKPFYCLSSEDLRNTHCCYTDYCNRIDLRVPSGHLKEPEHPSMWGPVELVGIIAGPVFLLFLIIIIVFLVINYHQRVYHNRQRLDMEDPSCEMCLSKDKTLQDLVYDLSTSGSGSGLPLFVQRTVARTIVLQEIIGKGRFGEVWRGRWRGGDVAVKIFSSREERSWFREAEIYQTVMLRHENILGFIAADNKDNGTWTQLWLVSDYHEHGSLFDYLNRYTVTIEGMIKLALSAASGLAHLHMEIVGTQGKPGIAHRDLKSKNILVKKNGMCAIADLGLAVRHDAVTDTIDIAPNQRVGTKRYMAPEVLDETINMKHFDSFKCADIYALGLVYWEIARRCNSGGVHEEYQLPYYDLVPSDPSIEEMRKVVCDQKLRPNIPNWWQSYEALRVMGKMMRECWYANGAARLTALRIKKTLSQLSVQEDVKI
Sequence of Testis-specific serine/threonine-protein kinase 2 (Homo sapiens) (Q96PF2 whole entry): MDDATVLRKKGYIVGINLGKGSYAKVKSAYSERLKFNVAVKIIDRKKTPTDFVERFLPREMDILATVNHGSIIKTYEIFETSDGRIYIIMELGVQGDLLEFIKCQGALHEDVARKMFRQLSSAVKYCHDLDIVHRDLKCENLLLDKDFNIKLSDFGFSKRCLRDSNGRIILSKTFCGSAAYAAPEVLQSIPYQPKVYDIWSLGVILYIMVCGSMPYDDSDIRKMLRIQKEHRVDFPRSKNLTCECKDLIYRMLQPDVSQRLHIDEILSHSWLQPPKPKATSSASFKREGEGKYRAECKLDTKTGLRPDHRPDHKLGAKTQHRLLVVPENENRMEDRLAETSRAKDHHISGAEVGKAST
Sequence of Tyrosine-protein kinase receptor UFO (Homo sapiens) (P30530 whole entry): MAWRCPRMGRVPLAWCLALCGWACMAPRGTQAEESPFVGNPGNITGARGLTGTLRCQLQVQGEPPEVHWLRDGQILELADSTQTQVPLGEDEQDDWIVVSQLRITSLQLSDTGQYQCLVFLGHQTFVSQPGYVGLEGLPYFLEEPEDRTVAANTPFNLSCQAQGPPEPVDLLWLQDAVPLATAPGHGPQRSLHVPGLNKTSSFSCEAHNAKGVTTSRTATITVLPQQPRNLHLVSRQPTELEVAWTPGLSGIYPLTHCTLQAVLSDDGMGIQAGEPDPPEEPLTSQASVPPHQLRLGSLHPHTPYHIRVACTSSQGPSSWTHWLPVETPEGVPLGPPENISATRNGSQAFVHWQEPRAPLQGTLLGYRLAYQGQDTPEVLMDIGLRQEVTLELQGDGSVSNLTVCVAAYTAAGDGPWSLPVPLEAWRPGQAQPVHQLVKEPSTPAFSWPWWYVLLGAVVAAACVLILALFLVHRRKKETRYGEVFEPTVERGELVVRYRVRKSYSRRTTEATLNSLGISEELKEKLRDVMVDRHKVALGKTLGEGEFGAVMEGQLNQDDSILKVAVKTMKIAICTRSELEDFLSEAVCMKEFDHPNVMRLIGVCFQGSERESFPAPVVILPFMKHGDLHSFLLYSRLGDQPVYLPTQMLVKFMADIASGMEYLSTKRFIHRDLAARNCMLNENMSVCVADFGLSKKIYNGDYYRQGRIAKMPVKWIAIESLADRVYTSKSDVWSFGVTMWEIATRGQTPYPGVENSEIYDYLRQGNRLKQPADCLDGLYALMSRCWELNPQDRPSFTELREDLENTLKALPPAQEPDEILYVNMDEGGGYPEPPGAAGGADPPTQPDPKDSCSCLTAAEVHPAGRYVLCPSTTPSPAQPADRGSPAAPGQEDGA
Sequence of Mitogen-activated protein kinase 11 (Homo sapiens) (Q15759 whole entry): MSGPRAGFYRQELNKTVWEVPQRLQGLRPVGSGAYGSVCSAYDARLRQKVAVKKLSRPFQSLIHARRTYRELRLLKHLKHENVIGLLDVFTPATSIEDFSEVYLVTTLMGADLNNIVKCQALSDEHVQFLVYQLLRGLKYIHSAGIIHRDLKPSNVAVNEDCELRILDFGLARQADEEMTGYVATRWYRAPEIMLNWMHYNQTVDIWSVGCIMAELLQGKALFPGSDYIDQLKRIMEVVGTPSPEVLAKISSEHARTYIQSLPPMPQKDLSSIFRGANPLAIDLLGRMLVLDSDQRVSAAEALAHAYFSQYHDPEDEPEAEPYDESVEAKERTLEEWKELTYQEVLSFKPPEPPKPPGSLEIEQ
Sequence of Hepatocyte growth factor receptor (Homo sapiens) (P08581 whole entry): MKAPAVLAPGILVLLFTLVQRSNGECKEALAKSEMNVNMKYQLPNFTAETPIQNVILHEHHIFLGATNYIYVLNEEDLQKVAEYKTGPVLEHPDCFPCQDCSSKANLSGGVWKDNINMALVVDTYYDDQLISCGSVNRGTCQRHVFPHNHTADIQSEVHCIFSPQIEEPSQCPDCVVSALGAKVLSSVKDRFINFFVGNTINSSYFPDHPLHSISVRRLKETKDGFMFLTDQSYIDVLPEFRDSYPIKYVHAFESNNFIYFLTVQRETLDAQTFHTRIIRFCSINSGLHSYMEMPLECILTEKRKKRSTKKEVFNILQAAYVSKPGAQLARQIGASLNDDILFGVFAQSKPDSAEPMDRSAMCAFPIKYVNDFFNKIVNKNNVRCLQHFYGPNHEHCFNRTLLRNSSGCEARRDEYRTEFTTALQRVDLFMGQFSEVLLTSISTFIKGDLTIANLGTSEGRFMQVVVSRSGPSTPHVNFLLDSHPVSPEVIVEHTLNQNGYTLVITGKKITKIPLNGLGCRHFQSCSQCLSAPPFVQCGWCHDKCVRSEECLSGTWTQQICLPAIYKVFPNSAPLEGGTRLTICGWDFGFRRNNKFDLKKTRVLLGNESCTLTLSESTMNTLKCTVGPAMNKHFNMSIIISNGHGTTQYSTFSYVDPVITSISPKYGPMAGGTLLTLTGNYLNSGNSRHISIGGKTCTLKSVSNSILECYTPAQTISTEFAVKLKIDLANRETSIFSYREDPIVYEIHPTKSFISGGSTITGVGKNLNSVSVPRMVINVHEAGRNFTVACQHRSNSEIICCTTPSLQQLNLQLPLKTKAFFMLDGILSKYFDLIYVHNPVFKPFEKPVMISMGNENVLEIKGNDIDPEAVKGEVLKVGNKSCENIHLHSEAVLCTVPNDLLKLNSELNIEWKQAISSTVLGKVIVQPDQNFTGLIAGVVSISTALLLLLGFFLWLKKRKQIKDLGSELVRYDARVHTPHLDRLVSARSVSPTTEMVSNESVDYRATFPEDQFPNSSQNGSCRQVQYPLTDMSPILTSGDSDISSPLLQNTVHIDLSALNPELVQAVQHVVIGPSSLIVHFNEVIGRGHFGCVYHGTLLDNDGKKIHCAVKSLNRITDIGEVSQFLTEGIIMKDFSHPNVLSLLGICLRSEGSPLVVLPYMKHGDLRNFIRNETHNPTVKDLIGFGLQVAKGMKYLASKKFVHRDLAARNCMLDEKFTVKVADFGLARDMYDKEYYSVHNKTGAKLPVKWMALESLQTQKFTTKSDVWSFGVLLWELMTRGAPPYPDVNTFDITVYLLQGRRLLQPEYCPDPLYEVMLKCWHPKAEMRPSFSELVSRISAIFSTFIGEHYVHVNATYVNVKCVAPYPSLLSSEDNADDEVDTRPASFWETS
Sequence of Serine/threonine-protein kinase PLK2 (Homo sapiens) (Q9NYY3 whole entry, looked up): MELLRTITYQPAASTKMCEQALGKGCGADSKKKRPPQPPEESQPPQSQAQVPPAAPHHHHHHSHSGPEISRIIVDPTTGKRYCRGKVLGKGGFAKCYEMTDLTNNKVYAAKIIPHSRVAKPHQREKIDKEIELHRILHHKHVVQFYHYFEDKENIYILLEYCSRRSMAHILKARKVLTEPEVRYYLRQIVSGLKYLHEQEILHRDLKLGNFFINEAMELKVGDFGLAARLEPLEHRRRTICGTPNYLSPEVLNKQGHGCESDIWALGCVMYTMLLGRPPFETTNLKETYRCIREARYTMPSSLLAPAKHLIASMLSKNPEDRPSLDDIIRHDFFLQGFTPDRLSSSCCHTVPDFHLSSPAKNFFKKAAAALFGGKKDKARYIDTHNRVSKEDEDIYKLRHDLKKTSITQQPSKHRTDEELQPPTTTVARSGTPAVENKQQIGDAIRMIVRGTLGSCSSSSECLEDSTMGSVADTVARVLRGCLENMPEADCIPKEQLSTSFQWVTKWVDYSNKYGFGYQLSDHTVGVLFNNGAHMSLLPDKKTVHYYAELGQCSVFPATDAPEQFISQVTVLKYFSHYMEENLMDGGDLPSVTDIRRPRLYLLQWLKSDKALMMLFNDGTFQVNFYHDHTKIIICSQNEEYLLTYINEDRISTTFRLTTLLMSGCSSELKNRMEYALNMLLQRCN

How did the residual activity [1] turn out when `S=c1[nH]nc(-c2ccncc2)n1-c1ccc2ccccc2c1` was run?
Its residual activity is 108%.

And the residual activity [2]?
Its residual activity is 98%.

And the residual activity [3]?
The residual activity was 104%.

What about the residual activity [4] of the same compound?
Its residual activity is 90%.

What about the residual activity [5] of the same compound?
Its residual activity is 110%.

What about the residual activity [6] of the same compound?
The residual activity was 113%.

And the inhibition [7]?
Its inhibition is 88%.

What about the residual activity [8] of the same compound?
Its residual activity is 97%.

And the residual activity [9]?
Its residual activity is 110%.

What about the residual activity [10] of the same compound?
Its residual activity is 115%.

And the residual activity [11]?
Its residual activity is 103%.

And the residual activity [12]?
Its residual activity is 112%.

And the residual activity [13]?
The residual activity was 96%.

And the residual activity [14]?
Its residual activity is 106%.

What about the residual activity [15] of the same compound?
The residual activity was 134%.

And the residual activity [16]?
Its residual activity is 98%.

And the residual activity [17]?
Its residual activity is 99%.

What about the residual activity [18] of the same compound?
The residual activity was 102%.

What about the residual activity [19] of the same compound?
The residual activity was 107%.

What about the residual activity [20] of the same compound?
Its residual activity is 108%.

What about the residual activity [21] of the same compound?
Its residual activity is 111%.

And the residual activity [22]?
Its residual activity is 105%.

And the residual activity [23]?
The residual activity was 115%.

And the residual activity [24]?
Its residual activity is 98%.

What about the residual activity [25] of the same compound?
The residual activity was 105%.

What about the residual activity [26] of the same compound?
Its residual activity is 110%.

And the residual activity [27]?
Its residual activity is 110%.

And the residual activity [28]?
Its residual activity is 106%.

What about the residual activity [29] of the same compound?
The residual activity was 114%.
